Measurements published in patent US20250034182A1, “PHOSPHOLIPID COMPOUNDS AND METHODS OF MAKING AND USING THE SAME” (priority 2021, published 2025).

Columns and labels:
Assay type in all cases: cell-based
[1] = RSV NHBE CC50 384 V2 (per Ex. U); conditions: human
[2] = system: Respiratory syncytial virus recombinant with luciferase (RSV-Luc5) in NHBE cells; assay: NHBE RSV-Luc5 384-well assay (EC50 RSVFLUC NHBE-384, Example U); conditions: human respiratory syncytial virus, 72 h, read-out: RSV FLuc NHBE 384 EC50 (v2) (nM) (per Ex. U)
Experimental: Normal Human Bronchial Epithelial (NHBE) cells were purchased from Lonza (Walkersville, MD Cat #CC2540) and maintained in BEGM Bronchial Epithelial Cell (Growth Medium BulletKit (Lonza CC-3170).
Cells were thawed, expanded, and were used for experiments at passage 2. Respiratory syncytial virus recombinant with luciferase (RSV-Luc5) (≥1×10^7 Infectious Units/ml (IU/ml) determined by TCID50) was purchased from Microbiologics (Saint Cloud, MN). Viral replication was determined in NHBE cells in the following manner.
(§1) Compounds are prepared in 100% DMSO in 384-well polypropylene plates (Greiner, Monroe, NC, Cat #784201) with 8 compounds per plate in grouped replicates of 4 at 10 serially diluted concentrations (1:3). The serially diluted compounds were transferred to low dead volume Echo plates (Labcyte, Sunnyvale, CA, Cat #LP-0200).
The test compounds were spotted to 384-well assay plates (Greiner, Monroe, NC, Cat #781091) at 200 nL per well. NHBE cells were harvested and suspended in BEGM Bronchial Epithelial Cell Growth Medium BulletKit and seeded to the pre-spotted assay plates at 5,000 cells per well in 30 μL. RSV-Luc5 virus was diluted in BEGM Bronchial Epithelial Cell Growth Medium BulletKit at 500,000 Infectious Units (IU) per mL and 10 μL per well was added to the assay plates containing cells and compounds, for an MOI of 1. The assay plates were incubated for 3 days at 37° C. and 5% CO2. At the end of incubation, One-Glo reagent (Promega, Madison, WI, Cat #E6120) was prepared. The assay plates and One-Glo reagent were equilibrated to room temperature for at least 15 minutes. 40 μL per well of One-Glo reagent was added and the plates were incubated at room temperature for 15 minutes before reading the luminescence signal on an EnVision multimode plate reader (Perkin Elmer, Waltham, MA). Remdesivir was used as positive control and DMSO was used as negative control. Values were normalized to the positive and negative controls (as 0% and 100% replication, respectively) and data was fitted using non-linear regression analysis by Gilead's dose response tool. The EC50 value for each compound was defined as the concentration reducing the viral replication by 50%.

[3] = RSV HEP2-CC50-384-V2 (per Ex. V); conditions: human
[4] = system: Respiratory syncytial virus recombinant with luciferase (RSV-Luc5) in HEp-2 cells; assay: HEp-2 RSV-Luc5 384-well assay (EC50 RSVFLUC Hep2-384 v2, Example V); conditions: human respiratory syncytial virus, HEp-2, 72 h, read-out: RSV Hep-2 FLuc EC50 (v2) (nM) (per Ex. V)
Text: HEp-2 cell line was purchased from ATCC (Manassas, VA Cat #CCL-23) and maintained in Dulbecco's […] (DMEM) (Corning, New York, NY, Cat #15-018CM) supplemented with 10% fetal bovine serum (FBS) (Hyclone, Logan, UT, Cat #SH30071-03) and 1× Penicillin-Streptonycin-L-Glutamine (Corning, New York, NY, Cat #30-009-CI). Cells were passaged 2 times per week to maintain sub-confluent densities and were used for experiments at passage 5-20. Respiratory syncytial virus recombinant with luciferase (RSV-Luc5) (≥1×107 TCID50/ml) was purchased from Microbiologics (Saint Cloud, MN). Viral replication was determined in HEp-2 cells in the following manner.
as §1
The test compounds were spotted to 384-well assay plates (Greiner, Monroe, NC, Cat #781091) at 200 nL per well. HEp-2 cells were harvested and suspended in DMEM (supplemented with 10% FBS and 1× Penicillin-Streptomycin-L-Glutamine) and seeded to the pre-spotted assay plates at 4,000 cells per well in 30 μL. RSV-Luc5 viruses were diluted in DMEM (supplemented with 10% FBS and 1× Penicillin-Streptomycin-L-Glucamine) at 200,000 Infectious Units (IU) per mL and 10 μL per well was added to the assay plates containing cells and compounds, for an MOI=0.5. The assay plates were incubated for 3 days at 37° C. and 5% CO2. At the end of incubation, One-Glo reagent (Promega, Madison, WI, Cat #E6120) was prepared. The assay plates and One-Glo reagent were equilibrated to room temperature for at least 15 minutes. 40 μL per well of One-Glo reagent was added and the plates were incubated at room temp for 15 minutes before reading the luminescence signal on an EnVision multimode plate reader (Perkin Elmer, Waltham, MA). Remdesivir was used as positive control and DMSO was used as negative control. Values were normalized to the positive and negative controls (as 0% and 100% replication, respectively) and data was fitted using non-linear regression analysis by Gilead's dose response tool. The EC50 value for each compound was then determined as the concentration reducing the viral replication by 50%.

Q: What does the source list for `CCCCCCCCCCCCCCCCCCOC[C@H](COP(=O)(O)OC[C@@]1(C#N)O[C@@H](c2ccc3c(N)ncnn23)[C@H](O)[C@@H]1O)Oc1ccc(C#N)nc1` [Compound 24]?
A: CC50 at 3 days [1]: 937 nM; EC50 [2]: 4 nM

Q: What does the source list for `CCCCCCCCCCCCCCCCCCC[C@H](COP(=O)(O)OC[C@@]1(C#N)O[C@@H](c2ccc3c(N)ncnn23)[C@H](O)[C@@H]1O)Oc1ccc(C#N)c(F)c1` [Compound 85, ((2R,3S,4R,5S)-5-(4-aminopyrrolo[2,1-f][1,2,4]triazin-7-yl)-2-cyano-3,4-dihydroxytetrahydrofuran-2-yl)methyl ((R)-2-(4-cyano-3-fluorophenoxy)henicosyl) hydrogen phosphate]?
A: CC50 at 3 days [1]: 1440 nM; CC50 at 3 days [3]: > 50000 nM; EC50 [2]: 11 nM; EC50 [4]: 93 nM

Q: For `CCCCCCCCCCCCCC[C@@H](COP(=O)(O)OC[C@@]1(C#N)O[C@@H](c2ccc3c(N)ncnn23)[C@H](O)[C@@H]1O)OCc1cc(F)cc(C#N)c1` [Compound 86, ((2R,3S,4R,5S)-5-(4-aminopyrrolo[2,1-f][1,2,4]triazin-7-yl)-2-cyano-3,4-dihydroxytetrahydrofuran-2-yl)methyl ((S)-2-((3-cyano-5-fluorobenzyl)oxy)hexadecyl) hydrogen phosphate], which CC50 at 3 days [1] is on record?
A: 2900 nM

Q: What about the CC50 at 3 days [3] of the same compound?
A: > 50000 nM

Q: And the EC50 [2]?
A: 25 nM

Q: What about the EC50 [4] of the same compound?
A: 546 nM

Q: What does the source list for `CCCCCCCCCCCCCCCCCC[C@@H](COP(=O)(O)OC[C@@]1(C#N)O[C@@H](c2ccc3c(N)ncnn23)[C@H](O)[C@@H]1O)OCc1cc(Cl)cc(C#N)c1` [Compound 87, ((2R,3S,4R,5S)-5-(4-aminopyrrolo[2,1-f][1,2,4]triazin-7-yl)-2-cyano-3,4-dihydroxytetrahydrofuran-2-yl)methyl ((S)-2-((3-chloro-5-cyanobenzyl)oxy)icosyl) hydrogen phosphate]?
A: CC50 at 3 days [1]: 3450 nM; CC50 at 3 days [3]: > 34800 nM; EC50 [2]: 133 nM; EC50 [4]: 443 nM

Q: Which CC50 at 3 days [1] does the source give for `CCCCCCCCCCCCCCCCOC[C@@H](COP(=O)(O)OC[C@@]1(C#N)O[C@@H](c2ccc3c(N)ncnn23)[C@H](O)[C@@H]1O)OCc1ccccc1` [Compound 92, ((2R,3S,4R,5S)-5-(4-aminopyrrolo[2,1-f][1,2,4]triazin-7-yl)-2-cyano-3,4-dihydroxytetrahydrofuran-2-yl)methyl ((S)-2-(benzyloxy)-3-(hexadecyloxy)propyl) hydrogen phosphate] here?
A: 9560 nM

Q: What about the CC50 at 3 days [3] of the same compound?
A: > 50000 nM

Q: What about the EC50 [2] of the same compound?
A: 47 nM

Q: And the EC50 [4]?
A: 194 nM

Q: What does the source list for `CCCCCCCCCCCCCCCCCC[C@@H](COP(=O)(O)OC[C@@]1(C#N)O[C@@H](c2ccc3c(N)ncnn23)[C@H](O)[C@@H]1O)OCc1ccccc1` [Compound 93, ((2R,3S,4R,5S)-5-(4-aminopyrrolo[2,1-f][1,2,4]triazin-7-yl)-2-cyano-3,4-dihydroxytetrahydrofuran-2-yl)methyl ((S)-2-(benzyloxy)icosyl) hydrogen phosphate]?
A: CC50 at 3 days [1]: 8140 nM; CC50 at 3 days [3]: > 50000 nM; EC50 [2]: 663 nM; EC50 [4]: 3060 nM

Q: For `CCCCCCCCCCCCCCCCCCOC[C@](C)(COP(=O)(O)OC[C@@]1(C#N)O[C@@H](c2ccc3c(N)ncnn23)[C@H](O)[C@@H]1O)OCc1cc(F)cc(C#N)c1` [Compound 94, ((2R,3S,4R,5S)-5-(4-aminopyrrolo[2,1-f][1,2,4]triazin-7-yl)-2-cyano-3,4-dihydroxytetrahydrofuran-2-yl)methyl ((R)-2-((3-cyano-5-fluorobenzyl)oxy)-2-methyl-3-(octadecyloxy)propyl) hydrogen phosphate], which CC50 at 3 days [1] is on record?
A: 16000 nM

Q: What about the CC50 at 3 days [3] of the same compound?
A: > 50000 nM

Q: What about the EC50 [2] of the same compound?
A: 59 nM

Q: And the EC50 [4]?
A: 339 nM

Q: With `CCCCCCCCCCCCCCCCCC[C@@H](COP(=O)(O)OC[C@@]1(C#N)O[C@@H](c2ccc3c(N)ncnn23)[C@H](O)[C@@H]1O)Oc1cc(F)cc(C#N)c1` [Compound 96, ((2R,3S,4R,5S)-5-(4-aminopyrrolo[2,1-f][1,2,4]triazin-7-yl)-2-cyano-3,4-dihydroxytetrahydrofuran-2-yl)methyl ((S)-2-(3-cyano-5-fluorophenoxy)icosyl) hydrogen phosphate] as the compound, how does the CC50 at 3 days [1] read?
A: 5240 nM

Q: And the CC50 at 3 days [3]?
A: > 38100 nM

Q: What about the EC50 [2] of the same compound?
A: 67 nM

Q: What about the EC50 [4] of the same compound?
A: 368 nM

Q: What does the source list for `CCCCCCCCCCCCC[C@@H](COP(=O)(O)OC[C@@]1(C#N)O[C@@H](c2ccc3c(N)ncnn23)[C@H](O)[C@@H]1O)OCc1cc(F)cc(C#N)c1` [Compound 97, ((2R,3S,4R,5S)-5-(4-aminopyrrolo[2,1-f][1,2,4]triazin-7-yl)-2-cyano-3,4-dihydroxytetrahydrofuran-2-yl)methyl ((S)-2-((3-cyano-5-fluorobenzyl)oxy)pentadecyl) hydrogen phosphate]?
A: CC50 at 3 days ([1]; NHBE cells, 384-well, read-out: RSV NHBE CC50 384 V2 (nM) (per Ex. U)): 3910 nM; CC50 at 3 days ([3]; HEp-2 cells, 384-well, read-out: RSV HEP2-CC50-384-V2 (nM) (per Ex. V)): > 43900 nM; EC50 [2]: 45 nM; EC50 [4]: 1490 nM

Q: Which CC50 at 3 days [1] does the source give for `CCCCCCCCCCCCCCCCOC[C@@H](COP(=O)(O)OC[C@@]1(C#N)O[C@@H](c2ccc3c(N)ncnn23)[C@H](O)[C@@H]1O)OCc1cc(Cl)cc(C#N)c1` [Compound 98, ((2R,3S,4R,5S)-5-(4-aminopyrrolo[2,1-f][1,2,4]triazin-7-yl)-2-cyano-3,4-dihydroxytetrahydrofuran-2-yl)methyl ((S)-2-((3-chloro-5-cyanobenzyl)oxy)-3-(hexadecyloxy)propyl) hydrogen phosphate] here?
A: 2900 nM

Q: And the EC50 [2]?
A: 11 nM

Q: What about the EC50 [4] of the same compound?
A: 34 nM
